Laboratory results reported in ChEMBL document CHEMBL1133615 (J Med Chem, 2000).
pKi: −log10 of the molar value.

Columns and labels:
Oryctolagus cuniculus = species on record: Oryctolagus cuniculus; test: Inhibition of Endothelin-1 induced contractions in rabbit carotid artery rings.; type: functional
Endothelin-1 receptor = biological target: T1, Endothelin-1 receptor (Homo sapiens, UniProt P25101)
T1 sequence (P25101 whole entry): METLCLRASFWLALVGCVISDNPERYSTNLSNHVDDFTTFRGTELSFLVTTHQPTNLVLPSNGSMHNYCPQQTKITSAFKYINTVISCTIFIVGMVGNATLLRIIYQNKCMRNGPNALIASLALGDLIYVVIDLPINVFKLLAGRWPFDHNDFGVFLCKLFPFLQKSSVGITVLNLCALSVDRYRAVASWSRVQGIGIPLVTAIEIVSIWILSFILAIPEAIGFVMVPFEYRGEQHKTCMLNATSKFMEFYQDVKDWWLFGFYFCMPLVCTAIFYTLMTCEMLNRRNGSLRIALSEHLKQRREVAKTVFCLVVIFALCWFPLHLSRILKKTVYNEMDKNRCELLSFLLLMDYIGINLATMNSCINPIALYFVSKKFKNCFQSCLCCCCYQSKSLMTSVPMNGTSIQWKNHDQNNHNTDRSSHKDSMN
Description: Inhibition of Human Endothelin A receptor expressed in CHO Cells.

[1] = biological target: T2, Endothelin receptor type B (Homo sapiens, UniProt P24530); test: Inhibition of Human Endothelin B receptor expressed in CHO Cells.
T2 sequence (P24530 whole entry): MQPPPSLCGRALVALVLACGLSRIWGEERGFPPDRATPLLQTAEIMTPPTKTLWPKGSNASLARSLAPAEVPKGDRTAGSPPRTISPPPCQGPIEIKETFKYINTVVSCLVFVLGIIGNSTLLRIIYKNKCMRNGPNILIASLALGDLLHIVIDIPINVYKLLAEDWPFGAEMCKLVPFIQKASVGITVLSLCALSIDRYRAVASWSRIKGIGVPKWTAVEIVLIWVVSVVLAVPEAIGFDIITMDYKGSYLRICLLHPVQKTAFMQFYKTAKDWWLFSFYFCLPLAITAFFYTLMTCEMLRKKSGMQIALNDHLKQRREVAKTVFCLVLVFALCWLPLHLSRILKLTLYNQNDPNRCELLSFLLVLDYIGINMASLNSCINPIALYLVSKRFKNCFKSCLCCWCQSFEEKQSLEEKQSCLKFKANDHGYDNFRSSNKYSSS

SMILES | Kb (Oryctolagus cuniculus) | pKi (Endothelin-1 receptor) | pKi [1]
Cc1noc(NS(=O)(=O)c2ccccc2-c2ccc(-c3ncoc3C)cc2)c1C | 0.047 µM | 8.33 | 4.03
Cc1coc(-c2ccc(-c3ccccc3S(=O)(=O)Nc3onc(C)c3C)cc2)n1 | 0.018 µM | 8.70 | 4.00
Cc1noc(NS(=O)(=O)c2ccccc2-c2ccc(-c3cocn3)cc2)c1C | 0.02 µM | 9.30 | 4.70
Cc1noc(NS(=O)(=O)c2ccccc2-c2ccc(CC(C)C)cc2)c1C | 0.21 µM | 7.74 | 5.77
Cc1noc(NS(=O)(=O)c2ccccc2-c2ccc(CC(C)C)cc2N)c1C |  | 8.33 | 
Cc1nc(-c2ccc(-c3ccccc3S(=O)(=O)Nc3onc(C)c3C)cc2)oc1C | 0.23 µM | 7.80 | 4.92
Cc1nc(-c2ccc(-c3ccccc3S(=O)(=O)Nc3onc(C)c3C)cc2)co1 | 2.5 µM | 7.15 | 3.96
Cc1noc(NS(=O)(=O)c2ccccc2-c2ccc(-c3cnco3)cc2)c1C | 0.058 µM | 8.43 | 4.11
Cc1noc(NS(=O)(=O)c2ccccc2-c2ccc(-c3nc4ccccc4o3)cc2)c1C |  | 5.70 | 4.03
Cc1noc(NS(=O)(=O)c2ccccc2-c2ccc(Cc3ncco3)cc2)c1C | 0.32 µM | 7.72 | 4.47
Cc1cnc(-c2ccc(-c3ccccc3S(=O)(=O)Nc3onc(C)c3C)cc2)o1 | 0.14 µM | 7.96 | 4.92
